Assay [1] has as its system pancreatic cancer cell lines with a DPC4 deletion (BxPC-3 and CFPAC-1) vs DPC4 wildtype (MIA PaCa-2 and PANC-1). In words: Cell viability by Cell Titer-Glo after 96 hours of drug treatment, pancreatic cancer cell lines. It counts as cell-based, human. The following applies: BxPC-3 and CFPAC-1 vs MIA PaCa-2 and PANC-1, FIG. 5A, *p<0.05, **p<0.0001. The protocol: Cell viability was measured by Cell Titer-Glo after 96 hours of drug treatment.
(In general: In ATP-based viability assays light output follows the ATP content of the culture.)

Assay [2] deals with collagen-induced arthritis. The following applies: mice, orally dosed; cited from earlier work.
Assay [3] relates to BCR (B cell receptor) signaling in human B cells. The conditions noted are these: cited from earlier work.
Assay [4] concerns T cell receptor (TCR) signaling. The conditions noted are these: cited from earlier work.
The subject of assay [5] is mast cell and basophil degranulation. The conditions noted are these: cited from earlier work.
For the next assay, the system named is MRL/lpr lupus model. The following applies: cited from earlier work.

The values below come from patent US10322127B2, “Methods and kits to predict therapeutic outcome of BTK inhibitors” (THE TRANSLATIONAL GENOMICS RESEARCH INSTITUTE, priority 2010, dated 2019).

Regarding `C=CC(=O)N1CCC[C@@H](n2nc(-c3ccc(Oc4ccccc4)cc3)c3c(N)ncnc32)C1` [PCI-32765], in assay [1], the “activity (inhibition of cell growth) in DPC4 deleted vs DPC4 wildtype pancreatic cancer cell lines” value is reported as “more activity”. Moreover, in assay [2], the “course of collagen induced arthritis” value is reported as “reversed” and the “level of circulating autoantibodies” value is listed as “reduced”. For the same compound, the “effect on BCR signaling” value in assay [3] is on record as “blocks”. Moreover, in assay [4], the “effect on TCR signaling” value was “does not affect”. Also, in assay [5], the “inhibition of mast cell and basophil degranulation” value is “potent inhibitor”. In addition, the “auto-antibody production and development of kidney disease” value in the assay on MRL/lpr lupus model was “inhibited”.
